Values belong to the molecule of their own block, whether it stands above or below them.
How the values were obtained:
Assay type in all cases: physicochemical
[1] = Moisture- and heat-resistances test of thin films; details: thin film, 80° C., relative humidity 80%, 100 hours
Procedure: Similarly to the film-forming test, thin films of Complex Compounds (2) to (5), (7), (9) to (11), (13) to (21), (24), (26), (28), (30), (31), and (33) were respectively obtained. Using a constant temperature and humidity chamber, KHWII-40HP, manufactured by Satake Chemical Equipment Mfg Ltd., the thin films were exposed in the atmosphere having a temperature of 80° C. and a relative humidity of 80% for 100 hours. Ultraviolet-visible absorption spectra of the thin films before and after the moisture- and heat-resistances test were measured using a spectrophotometer. […] Here, the absorption maximum wavelength after the moisture- and heat-resistances test denotes the absorption maximum wavelength in an absorption spectrum after the moisture- and heat-resistances test.

[2] = Test of storage stability in solution; details: 13 mg in 1 mL TFP, brown bottle, 25° C., 3 days; 1250-fold diluted for measurement
Procedure: Each of 13 mg of Complex Compounds (2) to (5), (7), (9) to (11), (13) to (21), (24), (26), (28), (30), (31), and (33) was dissolved in 1 mL of TFP, which was filtered with a filter made of TEFLON (registered trademark) (manufactured by Whatman, having a pore diameter of 0.20 μm), and solutions of Complex Compounds (2) to (5), (7), (9) to (11), (13) to (21), (24), (26), (28), (30), (31), and (33) were respectively obtained. Each of the obtained solutions was transferred to a brown bottle with a lid and stored at 25° C. for 3 days. Before and after the storage stability test, using a spectrophotometer, 1250-fold diluted solutions of Complex Compounds (2) to (5), (7), (9) to (11), (13) to (21), (24), (26), (28), (30), (31), and (33), respectively, were measured for their ultraviolet-visible absorption spectra. […] Here, the absorption maximum wavelength after the storage stability test is the absorption maximum wavelength in the absorption spectrum after the storage stability test.

[3] = Lightfastness test of thin films; details: thin film on glass plate, UV fluorescent lamps 15 W/m^2, 45° C., 10 hours
Description: Thin films of Complex Compounds (2) to (5), (7), (9) to (11), (13) to (21), (24), (26), (28), (30), (31), and (33) were respectively obtained similarly to the film-forming test except that a glass plate (manufactured by Taiyu Kizai Co., Ltd.; 2 cm×2 cm; thickness: 2 mm) was used as the substrates instead of the plate made of polycarbonate resin. Using a dewpanel light control weather meter DPWL-5R, manufactured by Suga Test Instruments Co., Ltd., which was equipped with ultraviolet fluorescent lamps (SUGA-FS40, manufactured by Suga Test Instruments Co., Ltd., having a peak wavelength of 313 nm and an illuminance distribution of 282 nm to 373 nm), light was irradiated on the thin films with an amount of light of 15 W/m^2 at 45° C. for 10 hours. Ultraviolet-visible absorption spectra of the thin film before and after the lightfastness test were measured using a spectrophotometer.
Here, the absorption maximum wavelength after lightfastness test denotes an absorption maximum wavelength in the absorption spectrum after the lightfastness test.

I^b/I^b0 (absorbance ratio at absorption maximum after/before moisture- and heat-resistances test) [1]: 1.00
Δλmax(b) (change in absorption maximum wavelength) [1]: 0 nm
I^c/I^c0 (absorbance ratio at absorption maximum after/before storage stability test) [2]: 1.00
Δλmax(c) (change in absorption maximum wavelength) [2]: 0 nm
I^a/I^a0 (absorbance ratio at absorption maximum after/before lightfastness test) [3]: 0.97
SMILES: CCn1c([O-])c(/C=N/[N-]C(=O)c2ccc(C(F)(F)F)cc2)c(C)c(C#N)c1=O.CCn1c([O-])c(/C=N/[N-]C(=O)c2ccc(C(F)(F)F)cc2)c(C)c(C#N)c1=O.CCn1c([O-])c(/C=N/[N-]C(=O)c2ccc(C(F)(F)F)cc2)c(C)c(C#N)c1=O.CCn1c([O-])c(/C=N/[N-]C(=O)c2ccc(C(F)(F)F)cc2)c(C)c(C#N)c1=O.[Co+3].[Co+3].c1cc[n+]2c(c1)-c1cccc[n+]1CCC2 [Complex Compound (11)]

I^b/I^b0 (absorbance ratio at absorption maximum after/before moisture- and heat-resistances test) [1]: 1.00
Δλmax(b) (change in absorption maximum wavelength) [1]: 0.5 nm
I^c/I^c0 (absorbance ratio at absorption maximum after/before storage stability test) [2]: 1.00
Δλmax(c) (change in absorption maximum wavelength) [2]: 0 nm
I^a/I^a0 (absorbance ratio at absorption maximum after/before lightfastness test) [3]: 0.99
SMILES: CCn1c([O-])c(/C=N/[N-]C(=O)c2ccc(C(F)(F)F)cc2)c(C)c(C#N)c1=O.CCn1c([O-])c(/C=N/[N-]C(=O)c2ccc(C(F)(F)F)cc2)c(C)c(C#N)c1=O.CCn1c([O-])c(/C=N/[N-]C(=O)c2ccc(C(F)(F)F)cc2)c(C)c(C#N)c1=O.CCn1c([O-])c(/C=N/[N-]C(=O)c2ccc(C(F)(F)F)cc2)c(C)c(C#N)c1=O.[Co+3].[Co+3].c1cc2ccc3ccc[n+]4c3c2[n+](c1)CCC4 [Complex Compound (10)]

I^b/I^b0 (absorbance ratio at absorption maximum after/before moisture- and heat-resistances test) [1]: 1.00
Δλmax(b) (change in absorption maximum wavelength) [1]: 0 nm
I^c/I^c0 (absorbance ratio at absorption maximum after/before storage stability test) [2]: 1.00
Δλmax(c) (change in absorption maximum wavelength) [2]: 0 nm
I^a/I^a0 (absorbance ratio at absorption maximum after/before lightfastness test) [3]: 0.97
SMILES: CCn1c([O-])c(/C=N/[N-]C(=O)c2ccc(C(F)(F)F)cc2)c(C)c(C#N)c1=O.CCn1c([O-])c(/C=N/[N-]C(=O)c2ccc(C(F)(F)F)cc2)c(C)c(C#N)c1=O.CCn1c([O-])c(/C=N/[N-]C(=O)c2ccc(C(F)(F)F)cc2)c(C)c(C#N)c1=O.CCn1c([O-])c(/C=N/[N-]C(=O)c2ccc(C(F)(F)F)cc2)c(C)c(C#N)c1=O.Oc1ccc(-c2ccccc2)cc1-[n+]1ccc(-c2cc[n+](-c3cc(-c4ccccc4)ccc3O)cc2)cc1.[Co+3].[Co+3] [Complex Compound (9)]

The next lines start with the molecule.

SMILES: Cc1c(/C=N/[N-]c2nnnn2-c2ccccc2)c([O-])n(Cc2ccccc2)c(=O)c1C#N.Cc1c(/C=N/[N-]c2nnnn2-c2ccccc2)c([O-])n(Cc2ccccc2)c(=O)c1C#N.Cc1c(/C=N/[N-]c2nnnn2-c2ccccc2)c([O-])n(Cc2ccccc2)c(=O)c1C#N.Cc1c(/C=N/[N-]c2nnnn2-c2ccccc2)c([O-])n(Cc2ccccc2)c(=O)c1C#N.[Co+3].[Co+3].c1cc[n+]2c(c1)-c1cccc[n+]1CCC2 [Complex Compound (30)]
I^b/I^b0 (absorbance ratio at absorption maximum after/before moisture- and heat-resistances test) [1]: 0.99
Δλmax(b) (change in absorption maximum wavelength) [1]: 0 nm
I^c/I^c0 (absorbance ratio at absorption maximum after/before storage stability test) [2]: 0.99
Δλmax(c) (change in absorption maximum wavelength) [2]: 0 nm
I^a/I^a0 (absorbance ratio at absorption maximum after/before lightfastness test) [3]: 0.89

SMILES: Cc1ccc(-n2c([O-])c(/C=N/[N-]c3nnnn3-c3ccccc3)c(C)c(C#N)c2=O)cc1.Cc1ccc(-n2c([O-])c(/C=N/[N-]c3nnnn3-c3ccccc3)c(C)c(C#N)c2=O)cc1.Cc1ccc(-n2c([O-])c(/C=N/[N-]c3nnnn3-c3ccccc3)c(C)c(C#N)c2=O)cc1.Cc1ccc(-n2c([O-])c(/C=N/[N-]c3nnnn3-c3ccccc3)c(C)c(C#N)c2=O)cc1.[Co+3].[Co+3].c1cc[n+]2c(c1)-c1cccc[n+]1CCC2 [Complex Compound (26)]
I^b/I^b0 (absorbance ratio at absorption maximum after/before moisture- and heat-resistances test) [1]: 1.00
Δλmax(b) (change in absorption maximum wavelength) [1]: 0 nm
I^c/I^c0 (absorbance ratio at absorption maximum after/before storage stability test) [2]: 1.01
Δλmax(c) (change in absorption maximum wavelength) [2]: 0 nm
I^a/I^a0 (absorbance ratio at absorption maximum after/before lightfastness test) [3]: 0.88

SMILES: Cc1c(/C=N/[N-]c2nnnn2-c2ccccc2)c([O-])n(CC(C)C)c(=O)c1C#N.Cc1c(/C=N/[N-]c2nnnn2-c2ccccc2)c([O-])n(CC(C)C)c(=O)c1C#N.[Co+3].c1ccc(-c2nn(-c3ccccc3)[n+](-c3ccccc3)n2)cc1 [Complex Compound (15)]
I^b/I^b0 (absorbance ratio at absorption maximum after/before moisture- and heat-resistances test) [1]: 1.00
Δλmax(b) (change in absorption maximum wavelength) [1]: 0 nm
I^c/I^c0 (absorbance ratio at absorption maximum after/before storage stability test) [2]: 1.01
Δλmax(c) (change in absorption maximum wavelength) [2]: 0 nm
I^a/I^a0 (absorbance ratio at absorption maximum after/before lightfastness test) [3]: 0.88

SMILES: Cc1c(/C=N/[N-]c2nc3ccccc3o2)c([O-])n(Cc2ccccc2)c(=O)c1C#N.Cc1c(/C=N/[N-]c2nc3ccccc3o2)c([O-])n(Cc2ccccc2)c(=O)c1C#N.Cc1c(/C=N/[N-]c2nc3ccccc3o2)c([O-])n(Cc2ccccc2)c(=O)c1C#N.Cc1c(/C=N/[N-]c2nc3ccccc3o2)c([O-])n(Cc2ccccc2)c(=O)c1C#N.[Co+3].[Co+3].c1cc[n+]2c(c1)-c1cccc[n+]1CCC2 [Complex Compound (33)]
I^b/I^b0 (absorbance ratio at absorption maximum after/before moisture- and heat-resistances test) [1]: 1.00
Δλmax(b) (change in absorption maximum wavelength) [1]: 0 nm
I^c/I^c0 (absorbance ratio at absorption maximum after/before storage stability test) [2]: 1.01
Δλmax(c) (change in absorption maximum wavelength) [2]: 0 nm
I^a/I^a0 (absorbance ratio at absorption maximum after/before lightfastness test) [3]: 0.91

SMILES: Cc1c(/C=N/[N-]c2nnnn2-c2ccccc2)c([O-])n(CC(C)C)c(=O)c1C#N.Cc1c(/C=N/[N-]c2nnnn2-c2ccccc2)c([O-])n(CC(C)C)c(=O)c1C#N.Cc1c(/C=N/[N-]c2nnnn2-c2ccccc2)c([O-])n(CC(C)C)c(=O)c1C#N.Cc1c(/C=N/[N-]c2nnnn2-c2ccccc2)c([O-])n(CC(C)C)c(=O)c1C#N.[Co+3].[Co+3].c1ccc2c[n+](CCCCCC[n+]3ccc4ccccc4c3)ccc2c1 [Complex Compound (17)]
I^b/I^b0 (absorbance ratio at absorption maximum after/before moisture- and heat-resistances test) [1]: 0.98
Δλmax(b) (change in absorption maximum wavelength) [1]: 0 nm
I^c/I^c0 (absorbance ratio at absorption maximum after/before storage stability test) [2]: 0.98
Δλmax(c) (change in absorption maximum wavelength) [2]: 0 nm
I^a/I^a0 (absorbance ratio at absorption maximum after/before lightfastness test) [3]: 0.88

SMILES: CCn1c([O-])c(/C=N/[N-]c2ncccn2)c(C)c(C#N)c1=O.CCn1c([O-])c(/C=N/[N-]c2ncccn2)c(C)c(C#N)c1=O.CCn1c([O-])c(/C=N/[N-]c2ncccn2)c(C)c(C#N)c1=O.CCn1c([O-])c(/C=N/[N-]c2ncccn2)c(C)c(C#N)c1=O.Oc1ccc(-c2ccccc2)cc1-[n+]1ccc(-c2cc[n+](-c3cc(-c4ccccc4)ccc3O)cc2)cc1.[Co+3].[Co+3] [Complex Compound (7)]
I^b/I^b0 (absorbance ratio at absorption maximum after/before moisture- and heat-resistances test) [1]: 1.00
Δλmax(b) (change in absorption maximum wavelength) [1]: 0 nm
I^c/I^c0 (absorbance ratio at absorption maximum after/before storage stability test) [2]: 1.00
Δλmax(c) (change in absorption maximum wavelength) [2]: 0 nm
I^a/I^a0 (absorbance ratio at absorption maximum after/before lightfastness test) [3]: 0.99

— patent US20130123494A1, “COMPLEX COMPOUND AND OPTICAL RECORDING MEDIUM CONTAINING SAME” (KH NEOCHEM CO., LTD., priority 2010, published 2013)
